The conditions of data set [1]: rat, in vivo, iv; cited from earlier work.
Data set [2] has as its system human renal proximal tubule epithelial cells (HK-2 human kidney cells). The data set is described as follows: Secretion of KIM-1 by HK-2 cells treated with Urografin or iohexol, ELISA of culture medium. The conditions noted are these: 10^−6 M PACAP38, ELISA (FIG. 5). The class given is cell-based. The procedure:
The HK-2 human kidney cells were cultured in Keratinocyte-Serum Free Medium supplemented with recombinant epidermal growth factor and bovine pituitary extract. The effects of 10^−6 M PACAP38 on the excretion of KIM-1 were assessed by determining the concentration of KIM-1 in the culture medium with an enzyme-linked immunosorbent assay. Each value represents the mean plus/minus the standard error of three determinations. **p<0.01 and *p<0.05 compared to the cells treated only with Urografin.
(§1) At the highest dose tested, PACAP38 reduced the cell death caused by Urografin by more than 70%.
Background: In an ELISA, binding on a coated surface is turned into a signal by an enzyme label.

Data set [3] has the same test system. The data set is described as follows: Urografin-induced injury (cytotoxicity) of HK-2 cells, lactate dehydrogenase activity in the culture medium. The class given is cell-based. The conditions noted are these: for Urografin-induced cell death of human renal proximal tubule epithelial cells: various concentrations added to the medium. The procedure: The HK-2 human kidney cells were cultured in Keratinocyte-Serum Free Medium supplemented with recombinant epidermal growth factor and bovine pituitary extract. […] Each value represents the mean plus/minus the standard error of four determinations. **p<0.01 and *p<0.05 compared to the cells treated only with Urografin.
The HK-2 human kidney cells were cultured in Keratinocyte-Serum Free Medium supplemented with recombinant epidermal growth factor and bovine pituitary extract. […] Each value represents the mean plus/minus the standard error of eight determinations. **p<0.01 and *p<0.05 compared to the cells treated only with Urografin. The ID numbers in the figure correspond to the SEQ ID NO numbers in the Sequence Listing. ID1=PACAP38, ID2=PACAP27, ID4=[D-Ser^2]PACAP38, ID5=[Aib^2]PACAP38, ID6=[D-Ser^2,Lys^38-palmitoyl]PACAP38, ID8=[Ala^22]PACAP38, ID10=[Lys^34]PACAP38, ID38=N-acetyl[Pip^3]PACAP38, ID39=[Pip^3,Ala^14,17,Aib^16,28,Lys^34, D-Lys^38]PACAP38, and ID40=[Pip^3,Ala^15,17,Aib^16,28,Lys^34,D-Lys^38]PACAP38.
as §1

In data set [4] the test system is male homozygous eNOS-deficient mice. In words: Mouse model of contrast-induced nephropathy (Urografin i.v.), serum and kidney biomarkers. Type of data set: in vivo. Conditions: 72 h. The method, then:
(§2) Male homozygous eNOS-deficient mice were given a single intravenous injection of Urografin at a dose of 1.85 g iodine/kg body weight. The mice were deprived of water for 24 hours before the start of the experiment. Twenty micrograms of PACAP38 were given intraperitoneally 1 hour before the injection of Urografin and an additional dose was given 12 hours later. The control group of mice was injected intravenously with the same volume of saline as for the injections of Urografin and PACAP38 on the same schedule. The mice were euthanized 72 hours after the injection of Urografin. The concentration of cystatin C in serum was determined with an enzyme-linked immunosorbent assay. Each value represents the mean plus/minus the standard error of five or eight determinations. **p<0.01 compared to the group treated with Urografin and saline.
as §2, with “control” for “control group of”, “mice were” for “mice was”, “Urografin. Quantification” for “Urografin. The concentration”, “of mRNA levels for KIM-1” for “of cystatin C in serum”, “was made by real-time reverse transcriptase polymerase chain reaction analyses.” for “was determined with an enzyme-linked immunosorbent assay.”
as §2, with “control” for “control group of”, “mice were” for “mice was”, “Urografin. Quantification” for “Urografin. The concentration”, “of mRNA levels for netrin-1” for “of cystatin C in serum”, “was made by real-time reverse transcriptase polymerase chain reaction analyses.” for “was determined with an enzyme-linked immunosorbent assay.”
as §2, with “control” for “control group of”, “mice were” for “mice was”, “Urografin. Quantification” for “Urografin. The concentration”, “of mRNA levels for TNF-α” for “of cystatin C in serum”, “was made by real-time reverse transcriptase polymerase chain reaction analyses.” for “was determined with an enzyme-linked immunosorbent assay.”, “**p<0.01 and *p<0.05” for “**p<0.01”
Male homozygous eNOS-deficient mice were given a single intravenous injection of Urografin at a dose of 1.85 g iodine/kg body weight. The mice were deprived of water for 24 hours before the start of the experiment. Twenty micrograms of PACAP38 were given intraperitoneally 1 hour before the injection of Urografin and an additional dose was given 12 hours later. The control mice were injected intravenously with the same volume of saline as for the injections of Urografin and PACAP38 on the same schedule. The mice were euthanized 72 hours after the injection of Urografin. […]

In data set [5] the test system is human renal proximal tubule epithelial cells (HK-2 human kidney cells). The data set is described as follows: Iohexol-induced inhibition of proliferation / loss of viable HK-2 cells, MTT conversion. Conditions: for loss of viable human renal proximal tubule epithelial cells caused by iohexol: various concentrations. The class given is cell-based. The method, then: The HK-2 human kidney cells were cultured in Keratinocyte-Serum Free Medium supplemented with recombinant epidermal growth factor and bovine pituitary extract. […] Each value represents the mean plus/minus the standard error of four determinations. **p<0.01 and *p<0.05 compared to the cells treated only with iohexol.

In data set [6] the target is T1, PAC1 receptor (Homo sapiens, UniProt P41586).
T1 sequence (P41586 21-468): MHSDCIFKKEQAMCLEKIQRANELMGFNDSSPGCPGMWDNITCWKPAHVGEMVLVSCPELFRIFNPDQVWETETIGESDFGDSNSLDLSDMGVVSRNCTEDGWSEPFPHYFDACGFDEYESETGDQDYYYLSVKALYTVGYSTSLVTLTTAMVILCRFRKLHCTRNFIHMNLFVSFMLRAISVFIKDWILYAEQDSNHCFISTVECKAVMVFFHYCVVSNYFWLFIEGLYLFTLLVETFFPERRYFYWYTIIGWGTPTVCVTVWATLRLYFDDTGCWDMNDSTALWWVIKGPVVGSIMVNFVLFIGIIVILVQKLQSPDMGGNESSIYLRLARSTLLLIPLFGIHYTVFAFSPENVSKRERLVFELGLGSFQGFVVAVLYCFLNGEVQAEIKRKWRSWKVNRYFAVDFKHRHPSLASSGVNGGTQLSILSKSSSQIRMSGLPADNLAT
The conditions noted are these: in words; cited from earlier work.

Bridges are numbered along the chain shown (N, C = ends). Where no end group is shown, it is not given here.

Regarding “[^125I]-PACAP38: radioiodinated PACAP38 used in a cited rat half-life study”, in data set [1], the “half-life in the bloodstream” value was 5 to 6 min.

Turning to PACAP38, in data set [2], the “Urografin-induced secretion of KIM-1 into the medium” value is given as “significantly reduced” and the “iohexol-induced secretion of KIM-1 into the medium” value is “significantly reduced”. In data set [3] (10^−8 M (p<0.05), 10^−7 M (p<0.01) and 10^−6 M (p<0.01) (FIG. 2)), the “potency against Urografin-induced cell injury compared with VIP” value was “significantly more potent than VIP”. Also, in data set [3] (highest dose tested, HK-2 cells, LDH in medium (FIG. 2)), the “reduction of the cell death caused by Urografin” value was “more than 70%”. For the same molecule, in data set [3] (LDH in medium (FIG. 2)), the “Urografin-induced cell death of human renal proximal tubule epithelial cells” value is reported as “significant dose-dependent reduction”. In data set [4] (20 μg i.p. 1 h before and 12 h after Urografin 1.85 g iodine/kg i.v., ELISA (FIG. 6)), the “Urografin-induced increase in serum levels of cystatin C” value is given as “reversed the increases”. Further, the “Urografin-induced increase in kidney levels of TNF-α protein” value in data set [4] (20 μg i.p. 1 h before and 12 h after Urografin, ELISA (FIG. 16)) is “reversed the increases”. Also, in data set [4] (20 μg i.p. 1 h before and 12 h after Urografin, ELISA (FIG. 17)), the “Urografin-induced increase in kidney levels of TGF-β1 protein” value is on record as “reversed the increases”. Also, in data set [4] (20 μg i.p. 1 h before and 12 h after Urografin, ELISA (FIG. 18)), the “Urografin-induced increase in kidney levels of MCP-1 protein” value is given as “reversed the increases”. In addition, in data set [4] (20 μg i.p. 1 h before and 12 h after Urografin, ELISA (FIG. 19)), the “Urografin-induced increase in kidney levels of IFN-γ protein” value is on record as “reversed the increases”. For the same molecule, in data set [4] (20 μg i.p. 1 h before and 12 h after Urografin, LC-MS/MS (FIG. 11)), the “Urografin-induced increase in serum levels of creatinine” value is on record as “reversed the increases”. In addition, the “Urografin-induced increase in kidney levels of KIM-1 mRNA” value in data set [4] (20 μg i.p. 1 h before and 12 h after Urografin, real-time RT-PCR (FIG. 7)) is reported as “reversed the increases”. Further, the “Urografin-induced increase in kidney levels of netrin-1 mRNA” value in data set [4] (20 μg i.p. 1 h before and 12 h after Urografin, real-time RT-PCR (FIG. 8)) is “reversed the increases”. In addition, the “Urografin-induced increase in kidney levels of TNF-α mRNA” value in data set [4] (20 μg i.p. 1 h before and 12 h after Urografin, real-time RT-PCR (FIG. 9)) is reported as “reversed the increases”. Moreover, the “Urografin-induced increase in kidney levels of iNOS mRNA” value in data set [4] (20 μg i.p. 1 h before and 12 h after Urografin, real-time RT-PCR (FIG. 10)) is “reversed the increases”. Also, the “Urografin-induced increase in kidney levels of Nogo-B1 mRNA” value in data set [4] (20 μg i.p. 1 h before and 12 h after Urografin, real-time RT-PCR (FIG. 12)) is given as “reversed the increases”. Further, in data set [4] (20 μg i.p. 1 h before and 12 h after Urografin, real-time RT-PCR (FIG. 13)), the “Urografin-induced increase in kidney levels of TGF-β1 mRNA” value is on record as “reversed the increases”. Further, the “Urografin-induced increase in kidney levels of Nox-4 mRNA” value in data set [4] (20 μg i.p. 1 h before and 12 h after Urografin, real-time RT-PCR (FIG. 14)) is listed as “reversed the increases”. In data set [4] (20 μg i.p. 1 h before and 12 h after Urografin, real-time RT-PCR (FIG. 15)), the “Urografin-induced increase in kidney levels of Nox-2 mRNA” value was “reversed the increases”. Further, the “potency as renoprotectant against iohexol compared with VIP” value in data set [5] (10^−7 M and 10^−6 M (FIG. 4)) is on record as “significantly more potent than VIP”. Besides, the “loss of viable human renal proximal tubule epithelial cells caused by iohexol at the highest dose” value in data set [5] (highest dose tested, MTT (FIG. 4)) is on record as “almost completely prevented”. Moreover, the “loss of viable human renal proximal tubule epithelial cells caused by iohexol” value in data set [5] (MTT (FIG. 4)) is on record as “significant dose-dependent reduction”.

For “VIP (HSDAVFTDNYTRLRKQMAVKKYLNSILN-NH2; listed as Homo sapiens)”, the “Urografin-induced cell death of human renal proximal tubule epithelial cells” value in data set [3] (LDH in medium (FIG. 2)) was “significant dose-dependent reduction”. Also, the “loss of viable human renal proximal tubule epithelial cells caused by iohexol” value in data set [5] (MTT (FIG. 4)) is on record as “significant dose-dependent reduction”.

B1: Maxadilan: 61-amino-acid peptide with two disulfide bridges from salivary glands of the sand fly Lutzomyia longipalpis; conformational analog of PACAP (peptide, listed as Lutzomyia longipalpis)
chain: CDATCQFRKAIEDCRKKAHHSDVLQTSVQTTATFTSMDTSQLPGSGVFKECMKQKAKEFKA
modifications: disulfide 1-5; disulfide 14-51 (inferred)
notes: 61-amino-acid peptide with two disulfide bridges from salivary glands of the sand fly Lutzomyia longipalpis; conformational analog of PACAP
With B1, the “binding to the PAC1 receptor” value in data set [6] is “high affinity”.

The record behind these values is patent US9353171B2 (The Administrators of the Tulane Educational Fund, priority 2011, dated 2016).
